In patent US10766879B2, “Pyrimidine derivatives as kinase inhibitors and their therapeutical applications” (NantBioScience, Inc., priority 2015, dated 2020):

Experiments:
AN3_CA = test: CellTiterblue viability, 72 hr, AN3_CA; format: cell-based; conditions: Homo sapiens, AN3-CA, AN3_CA cells
Method: (§1) A number of studies were performed to analyze the consequences of tyrosine kinase inhibition in cell lines. To do this, 1000 cells are seeded in 27 μl/well in 384-well microplates, which are then placed in a humidified CO2 incubator at 37° C. overnight. The next day, 3 μl/well of 10× concentrated drug is added and the plates are returned to the incubator for 72 hr. After 72 hr incubation, plates are removed and […] CellTiterblue (Promega) viability reagent is added. Plates are returned to the incubator for 3 hr, after which it is fluorescence measurements are read on the Victor X3 plate reader (Perkin Elmer). Data are analyzed using Excel (Microsoft), and GI50 values are determined using Prism (Graphpad).

Abl kinase = biological target: T1, Abl kinase (Homo sapiens, UniProt P00519); test: KinaseProfiler kinase inhibition assay, Abl; format: biochemical; conditions: 1 μM compound
T1 construct: purchased Millipore (KinaseProfiler Service)
T1 sequence (P00519 whole entry): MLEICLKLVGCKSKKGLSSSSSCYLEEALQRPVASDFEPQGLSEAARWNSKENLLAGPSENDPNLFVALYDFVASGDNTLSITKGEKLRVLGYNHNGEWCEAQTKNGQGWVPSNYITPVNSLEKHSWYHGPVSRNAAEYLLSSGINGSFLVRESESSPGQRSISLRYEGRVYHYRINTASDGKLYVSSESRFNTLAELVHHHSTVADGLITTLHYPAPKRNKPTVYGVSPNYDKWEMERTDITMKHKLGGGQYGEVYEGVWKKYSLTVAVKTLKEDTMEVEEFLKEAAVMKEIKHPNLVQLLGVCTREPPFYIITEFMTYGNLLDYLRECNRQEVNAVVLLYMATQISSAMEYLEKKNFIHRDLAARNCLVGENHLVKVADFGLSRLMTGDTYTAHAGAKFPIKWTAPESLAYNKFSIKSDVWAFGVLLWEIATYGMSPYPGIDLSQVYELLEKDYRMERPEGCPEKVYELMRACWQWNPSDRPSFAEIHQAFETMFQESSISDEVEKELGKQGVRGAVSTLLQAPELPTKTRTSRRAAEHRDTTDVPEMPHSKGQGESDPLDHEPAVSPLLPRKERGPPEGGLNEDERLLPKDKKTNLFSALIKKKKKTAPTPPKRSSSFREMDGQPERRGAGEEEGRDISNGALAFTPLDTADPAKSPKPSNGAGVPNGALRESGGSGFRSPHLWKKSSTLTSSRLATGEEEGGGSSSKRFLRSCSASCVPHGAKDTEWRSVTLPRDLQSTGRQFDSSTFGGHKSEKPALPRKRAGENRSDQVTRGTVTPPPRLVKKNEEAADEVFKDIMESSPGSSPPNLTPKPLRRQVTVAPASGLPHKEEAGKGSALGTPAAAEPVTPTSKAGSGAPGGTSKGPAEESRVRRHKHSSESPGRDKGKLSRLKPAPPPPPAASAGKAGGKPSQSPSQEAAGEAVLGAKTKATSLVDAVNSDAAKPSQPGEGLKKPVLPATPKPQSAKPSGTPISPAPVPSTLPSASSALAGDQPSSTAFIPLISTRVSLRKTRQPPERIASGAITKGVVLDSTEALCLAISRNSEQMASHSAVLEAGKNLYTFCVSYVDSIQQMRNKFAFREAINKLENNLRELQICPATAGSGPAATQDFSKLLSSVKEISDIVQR

Alk kinase = biological target: T2, Alk kinase (Homo sapiens, UniProt Q9UM73); test: KinaseProfiler kinase inhibition assay, Alk; format: biochemical; conditions: 1 μM compound
T2 construct: purchased Millipore (KinaseProfiler Service)

KDR kinase = biological target: T3, KDR kinase (Homo sapiens, UniProt P35968); test: KinaseProfiler kinase inhibition assay, KDR; format: biochemical; conditions: 1 μM compound
T3 construct: purchased Millipore (KinaseProfiler Service)
T3 sequence (P35968 20-1356): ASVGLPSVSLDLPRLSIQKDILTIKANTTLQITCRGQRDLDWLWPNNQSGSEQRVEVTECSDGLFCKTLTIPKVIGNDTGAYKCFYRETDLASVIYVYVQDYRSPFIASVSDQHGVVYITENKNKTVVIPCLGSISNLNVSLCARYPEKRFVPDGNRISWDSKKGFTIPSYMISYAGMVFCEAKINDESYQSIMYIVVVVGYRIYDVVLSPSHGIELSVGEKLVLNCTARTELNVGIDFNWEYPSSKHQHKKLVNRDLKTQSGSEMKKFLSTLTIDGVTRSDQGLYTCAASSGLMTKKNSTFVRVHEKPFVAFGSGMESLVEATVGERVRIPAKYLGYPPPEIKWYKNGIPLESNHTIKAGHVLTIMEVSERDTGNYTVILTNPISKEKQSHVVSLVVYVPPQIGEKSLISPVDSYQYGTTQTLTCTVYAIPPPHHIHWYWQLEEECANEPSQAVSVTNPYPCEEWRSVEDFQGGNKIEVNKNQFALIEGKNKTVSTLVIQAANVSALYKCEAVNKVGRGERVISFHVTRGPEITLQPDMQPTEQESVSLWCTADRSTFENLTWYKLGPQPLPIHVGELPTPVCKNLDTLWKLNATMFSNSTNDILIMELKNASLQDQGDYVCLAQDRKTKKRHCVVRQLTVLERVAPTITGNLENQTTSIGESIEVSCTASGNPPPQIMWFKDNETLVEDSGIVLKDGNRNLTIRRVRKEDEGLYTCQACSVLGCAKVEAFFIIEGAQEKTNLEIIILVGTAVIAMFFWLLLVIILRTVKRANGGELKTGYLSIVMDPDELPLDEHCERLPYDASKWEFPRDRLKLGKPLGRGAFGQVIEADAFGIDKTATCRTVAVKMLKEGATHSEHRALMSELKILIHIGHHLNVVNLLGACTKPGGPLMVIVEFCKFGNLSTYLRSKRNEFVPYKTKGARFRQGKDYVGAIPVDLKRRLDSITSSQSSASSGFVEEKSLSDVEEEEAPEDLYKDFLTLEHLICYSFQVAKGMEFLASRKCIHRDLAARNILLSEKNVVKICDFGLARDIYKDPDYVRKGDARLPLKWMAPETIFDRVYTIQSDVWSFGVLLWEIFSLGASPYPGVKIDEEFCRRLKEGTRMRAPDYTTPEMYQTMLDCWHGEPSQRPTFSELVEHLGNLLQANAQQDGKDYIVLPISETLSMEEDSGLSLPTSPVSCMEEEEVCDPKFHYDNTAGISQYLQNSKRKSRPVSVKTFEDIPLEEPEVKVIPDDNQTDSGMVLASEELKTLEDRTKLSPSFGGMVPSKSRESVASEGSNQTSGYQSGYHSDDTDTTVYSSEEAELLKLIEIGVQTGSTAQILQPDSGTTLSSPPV

FGFR1 kinase = biological target: T4, FGFR1 kinase (Homo sapiens, UniProt P11362); test: KinaseProfiler kinase inhibition assay, FGFR1; format: biochemical; conditions: 1 μM compound
T4 construct: purchased Millipore (KinaseProfiler Service)

phospho-FGFR2 = biological target: T5, phospho-FGFR2 (Homo sapiens, UniProt P21802); test: phospho-FGFR ELISA on Kato III cells; format: cell-based; conditions: read-out: EC50 (nM) P-FGFR2, Kato III cells
T5 construct: endogenous in cells; host or cells: Kato III cells
T5 sequence (P21802 22-766 isoform P21802-8 limits assumed): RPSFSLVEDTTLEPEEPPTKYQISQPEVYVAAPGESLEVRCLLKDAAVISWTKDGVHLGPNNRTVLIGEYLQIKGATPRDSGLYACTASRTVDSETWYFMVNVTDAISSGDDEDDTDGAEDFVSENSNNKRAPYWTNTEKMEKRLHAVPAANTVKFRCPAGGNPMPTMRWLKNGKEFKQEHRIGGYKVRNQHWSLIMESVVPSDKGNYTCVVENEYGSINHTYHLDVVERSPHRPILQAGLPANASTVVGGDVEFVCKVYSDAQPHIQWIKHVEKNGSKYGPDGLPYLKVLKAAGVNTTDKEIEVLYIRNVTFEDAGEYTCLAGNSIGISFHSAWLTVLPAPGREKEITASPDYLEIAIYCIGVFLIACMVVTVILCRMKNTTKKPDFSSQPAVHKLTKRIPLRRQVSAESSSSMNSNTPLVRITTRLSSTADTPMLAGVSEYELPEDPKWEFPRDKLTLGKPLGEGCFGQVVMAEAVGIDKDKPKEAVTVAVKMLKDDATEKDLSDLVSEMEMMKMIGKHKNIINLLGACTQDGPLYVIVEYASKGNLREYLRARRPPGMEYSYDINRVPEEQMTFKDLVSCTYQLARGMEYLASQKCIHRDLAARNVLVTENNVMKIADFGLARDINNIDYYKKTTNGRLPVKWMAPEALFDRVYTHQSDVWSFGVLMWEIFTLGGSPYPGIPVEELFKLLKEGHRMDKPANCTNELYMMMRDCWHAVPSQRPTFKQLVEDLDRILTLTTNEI
Method: For the phospho-FGFR, the following assay Protocol was used. 25,000 cells are seeded in 90 μl/well in 96-well microplates, which are then placed in a humidified CO2 incubator at 37° C. overnight. 96-well ELISA plates (Mesoscale Discovery) are coated with capture antibody (R&D Systems Duo-Set) at 4 μg/ml, 30 μl/well. The next day, 10 μl/well of 10× concentrated drug is added and the plates are returned to the incubator for […]. ELISA plates are washed using an automated plate washer (BioTek Instruments). After 30 min, cells are inverted and gently tapped to remove excess medium, and immediately placed on ice. 30 μl mPer cell lysis reagent (Thermo Scientific) with protease and phosphatase inhibitors is added/well. After 15 min on ice, lysates are mixed and 30 μl transferred to the ELISA plate. Plates are incubated for 2 hr, washed, and 30 μl/well detection antibody is added. After 1 hr, plates are washed and 30 μl “SulfoTag” (MesoScale Discovery) detection reagent is added. After 1 hr, plates are washed and 150 μl/well read solution is added. Electrochemiluminescence is determined on the Mesoscale Discovery Sector Imager 2000. Data are analyzed using Excel (Microsoft), and EC50 values are determined using Prism (Graphpad).

Tie2 = biological target: T6, Tie2 (Homo sapiens, UniProt Q02763); test: KinaseProfiler kinase inhibition assay, Tie2; format: biochemical; conditions: 1 μM compound
T6 construct: purchased Millipore (KinaseProfiler Service)

Kato III = test: CellTiterblue viability, 72 hr, Kato III; format: cell-based; conditions: Homo sapiens, Kato III cells
Method: as §1

RT112 = test: CellTiterblue viability, 72 hr, RT112; format: cell-based; conditions: Homo sapiens, RT-112, RT112 cells
Method: as §1

MDA-MB134 = test: CellTiterblue viability, 72 hr, MDA-MB134; format: cell-based; conditions: MDA-MB134 cells
Method: as §1

Ret kinase = biological target: T7, Ret kinase (Homo sapiens, UniProt P07949); test: KinaseProfiler kinase inhibition assay, Ret; format: biochemical; conditions: 1 μM compound
T7 construct: purchased Millipore (KinaseProfiler Service)
T7 sequence (P07949 29-1114): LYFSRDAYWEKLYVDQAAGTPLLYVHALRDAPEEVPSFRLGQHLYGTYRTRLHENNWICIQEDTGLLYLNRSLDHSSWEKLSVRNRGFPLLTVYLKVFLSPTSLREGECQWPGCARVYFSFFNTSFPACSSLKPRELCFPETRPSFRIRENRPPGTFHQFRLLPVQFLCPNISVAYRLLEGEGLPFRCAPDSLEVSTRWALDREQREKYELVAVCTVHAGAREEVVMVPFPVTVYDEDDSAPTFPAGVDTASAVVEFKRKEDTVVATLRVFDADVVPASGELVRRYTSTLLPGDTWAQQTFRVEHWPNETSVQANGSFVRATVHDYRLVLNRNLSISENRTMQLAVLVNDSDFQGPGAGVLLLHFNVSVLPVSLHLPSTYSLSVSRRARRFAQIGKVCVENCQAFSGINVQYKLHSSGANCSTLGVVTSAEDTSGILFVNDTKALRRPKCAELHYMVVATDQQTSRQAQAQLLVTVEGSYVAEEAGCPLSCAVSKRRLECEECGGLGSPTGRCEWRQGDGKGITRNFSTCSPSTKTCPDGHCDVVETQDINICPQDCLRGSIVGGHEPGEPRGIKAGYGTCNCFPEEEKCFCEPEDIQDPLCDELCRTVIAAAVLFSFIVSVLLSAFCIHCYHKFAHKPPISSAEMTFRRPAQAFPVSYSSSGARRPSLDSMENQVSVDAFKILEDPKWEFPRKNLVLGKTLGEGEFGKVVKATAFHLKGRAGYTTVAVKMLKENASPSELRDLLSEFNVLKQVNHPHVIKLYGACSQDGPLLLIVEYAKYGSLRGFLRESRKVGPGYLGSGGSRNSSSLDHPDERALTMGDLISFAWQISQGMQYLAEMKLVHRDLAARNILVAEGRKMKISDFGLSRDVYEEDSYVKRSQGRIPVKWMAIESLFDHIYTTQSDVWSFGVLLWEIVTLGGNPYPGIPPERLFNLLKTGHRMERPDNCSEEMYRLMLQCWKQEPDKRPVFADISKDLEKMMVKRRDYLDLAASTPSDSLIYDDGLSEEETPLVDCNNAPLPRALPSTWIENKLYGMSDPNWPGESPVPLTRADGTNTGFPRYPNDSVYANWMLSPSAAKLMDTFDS

KG1a = test: CellTiterblue viability, 72 hr, KG1a; format: cell-based; conditions: Homo sapiens, KG-1a, KG1a cells
Method: as §1

c-Src kinase = biological target: T8, c-Src kinase (Homo sapiens, UniProt P12931); test: KinaseProfiler kinase inhibition assay, c-Src; format: biochemical; conditions: 1 μM compound; read-out: % Inhibition @1 μM cSrc
T8 construct: purchased Millipore (KinaseProfiler Service)
T8 sequence (P12931 whole entry): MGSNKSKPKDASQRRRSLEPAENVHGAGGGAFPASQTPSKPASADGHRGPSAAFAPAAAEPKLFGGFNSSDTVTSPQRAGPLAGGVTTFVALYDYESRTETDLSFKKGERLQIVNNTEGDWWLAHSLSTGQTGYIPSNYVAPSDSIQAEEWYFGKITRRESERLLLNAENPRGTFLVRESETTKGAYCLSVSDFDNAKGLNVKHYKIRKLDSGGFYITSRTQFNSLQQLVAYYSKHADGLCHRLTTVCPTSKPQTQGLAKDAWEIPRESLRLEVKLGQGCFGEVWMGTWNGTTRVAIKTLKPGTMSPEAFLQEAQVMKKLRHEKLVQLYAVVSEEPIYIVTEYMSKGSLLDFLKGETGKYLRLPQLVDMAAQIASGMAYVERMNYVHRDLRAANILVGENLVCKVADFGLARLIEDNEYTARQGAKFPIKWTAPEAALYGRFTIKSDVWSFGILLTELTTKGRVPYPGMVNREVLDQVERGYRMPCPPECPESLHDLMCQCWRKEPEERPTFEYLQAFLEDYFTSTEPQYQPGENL

Structure (SMILES)	inhibition at 1 µM (Abl kinase) [%]	inhibition at 1 µM (Alk kinase) [%]	inhibition at 1 µM (KDR kinase) [%]	inhibition at 1 µM (FGFR1 kinase) [%]	EC50 (phospho-FGFR2) [nM]	inhibition at 1 µM (Tie2) [%]	GI50 (MDA-MB134) [nM]	inhibition at 1 µM (Ret kinase) [%]	inhibition at 1 µM (c-Src kinase) [%]	GI50 (AN3_CA) [nM]	GI50 (Kato III) [nM]	GI50 (RT112) [nM]	GI50 (KG1a) [nM]
Cc1cc2c(F)c(Oc3ncnc(Nc4cc(C5CC5)n[nH]4)c3F)ccc2[nH]1 [Compound 32, N-(3-cyclopropyl-1H-pyrazol-5-yl)-5-fluoro-6-((4-fluoro-2-methyl-1H-indol-5-yl)oxy) pyrimidin-4-amine]	0	-21	54	40	> 500	-9	138	-33	-7	> 500	> 500	> 500	> 500
COc1ccc(-c2cc(Nc3cc(Oc4ccc5[nH]c(C)cc5c4F)ncn3)n[nH]2)cc1OC [Example 5]	63	-10	97	93	> 100	45	–	77	65	211	> 500	> 100	> 100
Cc1cc2c(F)c(Oc3cc(Nc4cc(-c5ccccn5)[nH]n4)ncn3)ccc2[nH]1 [Example 6]	62	6	97	95	> 100	59	–	78	47	573	> 500	> 100	> 100
Cc1cc2c(F)c(Oc3cc(N4CCN(c5ccc(N)cc5F)CC4)ncn3)ccc2[nH]1 [Example 10]	13	40	20	-4	> 100	-12	–	-19	8	33	142	> 100	> 100
Cc1cc2c(F)c(Oc3cc(Nc4ccc(N5CCNCC5)cc4)ncn3)ccc2[nH]1 [Example 11]	60	70	96	99	96	92	–	67	59	> 500	> 500	> 100	> 100
Cc1cc2c(F)c(Oc3cc(Nc4ccc(N5CCN(C)CC5)c(F)c4)ncn3)ccc2[nH]1 [Example 14]	32	53	97	97	> 100	31	–	48	35	483	> 500	> 100	> 100
COc1cc(CCc2cc(Nc3cc(Oc4ccc5[nH]c(C)cc5c4F)ncn3)n[nH]2)cc(OC)c1 [Example 22]	19	15	96	98	> 100	18	–	25	9	> 500	229	> 100	> 100
CCN1CCN(c2ccc(Nc3ncnc(Oc4ccc5[nH]c(C)cc5c4F)c3F)cc2)CC1 [Example 25]	7	69	95	96	> 100	0	–	-11	11	> 500	> 500	> 100	> 100

These reach a lower EC50 (phospho-FGFR2). Values come first.

inhibition at 1 µM (Abl kinase) [%]	inhibition at 1 µM (Alk kinase) [%]	inhibition at 1 µM (KDR kinase) [%]	inhibition at 1 µM (FGFR1 kinase) [%]	EC50 (phospho-FGFR2) [nM]	inhibition at 1 µM (Tie2) [%]	GI50 (MDA-MB134) [nM]	inhibition at 1 µM (Ret kinase) [%]	inhibition at 1 µM (c-Src kinase) [%]	Structure (SMILES)	GI50 (AN3_CA) [nM]	GI50 (Kato III) [nM]	GI50 (RT112) [nM]	GI50 (KG1a) [nM]
45	3	97	102	88	58	–	75	47	Cc1cc2c(F)c(Oc3cc(Nc4ccc(N5CCN(C)CC5)cc4)ncn3)ccc2[nH]1 [Example 2]	490	165	> 100	> 100
68	69	96	99	75	69	56	53	74	CCN1CCN(c2ccc(Nc3cc(Oc4cc(F)c5[nH]c(C)cc5c4F)ncn3)cc2)CC1 [Compound 49]	> 500	207	> 500	60
84	32	97	100	36	82	–	79	78	Cc1cc2c(F)c(Oc3cc(Nc4ccc(N5CCN(C)CC5)cn4)ncn3)ccc2[nH]1 [Example 15]	332	290	> 100	> 100
11	49	98	100	18	5	5	-25	10	CCN1CCN(c2ccc(Nc3ncnc(Oc4ccc5[nH]c(C)cc5c4F)c3C#N)cc2)CC1 [Compound 53]	> 500	34	> 500	10
